Measurements taken from paper PMC12305662, “Fragment-Based Development of Small Molecule Inhibitors Targeting Mycobacterium tuberculosis Cholesterol Metabolism” (Journal of Medicinal Chemistry, 2025).

Columns and labels:
CYP125 = CYP125 (Mycobacterium tuberculosis, UniProt P9WPP1); format: binding; details: fragment 1 mM, P450 4-6 µM; Soret shift relative to DMSO (393 nm)
CYP142 = CYP142 (Mycobacterium tuberculosis, UniProt P9WPL5); details: fragment 1 mM, P450 4-6 µM; relative to DMSO (418.5 nm)
CYP124 = CYP124 (Mycobacterium tuberculosis, UniProt P9WPP3); details: fragment 1 mM, P450 4-6 µM; relative to DMSO (419 nm)
CYP121 = CYP121 (Mycobacterium tuberculosis, UniProt P9WPP7); details: fragment 1 mM, P450 4-6 µM; relative to DMSO (417 nm)
CYP126 = CYP126 (Mycobacterium tuberculosis, UniProt P9WPN9); details: fragment 1 mM, P450 4-6 µM; relative to DMSO (418 nm)
CYP143 = CYP143 (Mycobacterium tuberculosis, UniProt P9WPL3); details: fragment 1 mM, P450 4-6 µM; relative to DMSO (416 nm)
CYP144 = CYP144 (Mycobacterium tuberculosis, UniProt P9WPL1); details: fragment 1 mM, P450 4-6 µM; relative to DMSO (421 nm)
Chain of CYP144 (P9WPL1 whole entry, the tested form may be a part): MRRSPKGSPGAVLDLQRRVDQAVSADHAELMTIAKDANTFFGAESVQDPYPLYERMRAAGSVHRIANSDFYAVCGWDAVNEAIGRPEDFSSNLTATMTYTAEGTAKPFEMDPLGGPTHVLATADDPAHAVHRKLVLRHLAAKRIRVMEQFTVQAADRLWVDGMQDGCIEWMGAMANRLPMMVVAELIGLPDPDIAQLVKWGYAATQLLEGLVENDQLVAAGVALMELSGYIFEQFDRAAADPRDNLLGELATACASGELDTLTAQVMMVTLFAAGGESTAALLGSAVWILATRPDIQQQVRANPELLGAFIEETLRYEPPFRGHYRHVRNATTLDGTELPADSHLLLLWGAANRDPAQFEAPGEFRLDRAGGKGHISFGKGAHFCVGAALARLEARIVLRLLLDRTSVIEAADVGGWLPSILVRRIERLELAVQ

Chain of CYP124 (P9WPP3 whole entry, the tested form may be a part): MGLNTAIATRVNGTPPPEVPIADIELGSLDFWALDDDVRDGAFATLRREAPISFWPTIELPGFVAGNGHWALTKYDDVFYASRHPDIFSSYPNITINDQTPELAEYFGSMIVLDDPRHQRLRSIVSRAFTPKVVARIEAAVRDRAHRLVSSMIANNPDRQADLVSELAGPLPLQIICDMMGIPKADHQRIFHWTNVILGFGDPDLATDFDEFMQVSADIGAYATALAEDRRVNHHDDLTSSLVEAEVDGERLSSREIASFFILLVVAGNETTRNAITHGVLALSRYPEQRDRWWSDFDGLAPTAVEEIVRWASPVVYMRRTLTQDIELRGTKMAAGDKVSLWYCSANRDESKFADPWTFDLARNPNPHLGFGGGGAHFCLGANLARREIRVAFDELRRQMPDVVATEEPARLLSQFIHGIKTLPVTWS
Chain of CYP126 (P9WPN9 whole entry, the tested form may be a part): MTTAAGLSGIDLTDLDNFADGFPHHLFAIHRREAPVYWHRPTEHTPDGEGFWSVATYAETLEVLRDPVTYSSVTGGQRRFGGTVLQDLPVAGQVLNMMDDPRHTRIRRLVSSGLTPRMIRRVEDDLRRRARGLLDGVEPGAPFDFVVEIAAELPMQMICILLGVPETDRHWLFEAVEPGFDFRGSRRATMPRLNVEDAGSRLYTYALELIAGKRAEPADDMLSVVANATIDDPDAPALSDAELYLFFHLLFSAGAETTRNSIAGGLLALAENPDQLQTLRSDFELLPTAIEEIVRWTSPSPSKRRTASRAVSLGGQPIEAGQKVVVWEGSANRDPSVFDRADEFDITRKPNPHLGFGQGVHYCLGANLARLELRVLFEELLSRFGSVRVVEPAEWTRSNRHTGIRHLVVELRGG
Chain of CYP125 (P9WPP1 whole entry, the tested form may be a part): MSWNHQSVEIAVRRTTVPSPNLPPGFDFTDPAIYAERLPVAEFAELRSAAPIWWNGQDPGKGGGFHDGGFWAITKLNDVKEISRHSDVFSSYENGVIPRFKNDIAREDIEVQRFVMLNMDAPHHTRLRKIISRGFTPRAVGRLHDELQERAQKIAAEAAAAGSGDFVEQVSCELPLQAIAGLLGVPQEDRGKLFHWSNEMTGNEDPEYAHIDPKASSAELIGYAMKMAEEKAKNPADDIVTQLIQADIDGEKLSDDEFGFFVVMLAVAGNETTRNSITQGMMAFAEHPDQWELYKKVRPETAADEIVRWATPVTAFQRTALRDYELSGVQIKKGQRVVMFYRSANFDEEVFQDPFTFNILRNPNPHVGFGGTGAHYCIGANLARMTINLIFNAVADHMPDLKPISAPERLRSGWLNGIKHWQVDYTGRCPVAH
Chain of CYP142 (P9WPL5 whole entry, the tested form may be a part): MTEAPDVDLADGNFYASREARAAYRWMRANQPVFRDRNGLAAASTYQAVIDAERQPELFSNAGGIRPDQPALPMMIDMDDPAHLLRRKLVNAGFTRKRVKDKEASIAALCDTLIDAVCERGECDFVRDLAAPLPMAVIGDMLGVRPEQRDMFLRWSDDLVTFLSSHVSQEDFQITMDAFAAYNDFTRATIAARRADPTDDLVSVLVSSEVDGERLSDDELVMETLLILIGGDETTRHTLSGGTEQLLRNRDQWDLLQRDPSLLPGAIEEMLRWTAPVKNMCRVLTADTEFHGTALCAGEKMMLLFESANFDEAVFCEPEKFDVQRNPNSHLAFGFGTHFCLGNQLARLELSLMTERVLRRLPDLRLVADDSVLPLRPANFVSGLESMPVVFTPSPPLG
Chain of CYP121 (P9WPP7 whole entry, the tested form may be a part): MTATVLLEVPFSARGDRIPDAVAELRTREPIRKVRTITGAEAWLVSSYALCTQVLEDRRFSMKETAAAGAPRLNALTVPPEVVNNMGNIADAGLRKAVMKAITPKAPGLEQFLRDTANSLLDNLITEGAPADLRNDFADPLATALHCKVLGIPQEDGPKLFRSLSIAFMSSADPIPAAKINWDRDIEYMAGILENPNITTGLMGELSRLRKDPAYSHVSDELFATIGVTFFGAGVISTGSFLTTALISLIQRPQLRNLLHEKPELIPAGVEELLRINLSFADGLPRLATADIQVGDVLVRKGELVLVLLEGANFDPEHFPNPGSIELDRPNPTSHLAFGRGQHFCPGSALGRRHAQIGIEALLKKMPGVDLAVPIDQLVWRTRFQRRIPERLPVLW
Chain of CYP143 (P9WPL3 whole entry, the tested form may be a part): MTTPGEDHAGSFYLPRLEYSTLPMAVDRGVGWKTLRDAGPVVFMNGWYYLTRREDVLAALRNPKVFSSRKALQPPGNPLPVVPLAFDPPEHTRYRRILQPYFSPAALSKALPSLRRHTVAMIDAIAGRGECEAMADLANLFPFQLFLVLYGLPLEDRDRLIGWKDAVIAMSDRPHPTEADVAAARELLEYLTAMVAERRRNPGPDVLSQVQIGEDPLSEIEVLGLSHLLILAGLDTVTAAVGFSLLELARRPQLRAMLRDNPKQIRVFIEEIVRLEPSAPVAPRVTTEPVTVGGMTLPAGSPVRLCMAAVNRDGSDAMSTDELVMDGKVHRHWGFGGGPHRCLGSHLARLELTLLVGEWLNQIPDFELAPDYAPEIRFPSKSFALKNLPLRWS

SMILES | Δλmax (nm) CYP125, fragment screen (CYP125) [nm] | Δλmax (nm) CYP142, fragment screen (CYP142) [nm] | Δλmax (nm) CYP124, fragment screen (CYP124) [nm] | Δλmax (nm) CYP121, fragment screen (CYP121) [nm] | Δλmax (nm) CYP126, fragment screen (CYP126) [nm] | Δλmax (nm) CYP143, fragment screen (CYP143) [nm] | Δλmax (nm) CYP144, fragment screen (CYP144) [nm]
Clc1ccc(Cl)nn1 [compound 27] | 0 | 0 | 0 | 0 | 0 | 0.5 | 0
Nc1cc(Cl)nc(Cl)c1 [compound 28] | 0 | 0 | 0 | 0 | 0 | 0 | 0
OCc1ccc(Br)cn1 [compound 29] | 0 | 0 | 0 | 0 | 0 | 0.5 | 0
O=C(O)c1cccc(O)n1 [compound 30] | 0 | 0 | 0 | 0 | 0 | 1 | 0
COc1ccc(C(C)=O)cn1 [compound 31] | 0 | 0 | 0 | 0 | 0 | 0.5 | 0
Cc1cc(C(=O)O)[nH]n1 [compound 32] | 0 | 0 | 0 | 0 | 0 | -0.5 | 0
OB(O)c1ccccc1 [compound 33] | 0 | 0 | 0 | 0 | 0 | 4 | 0
O=C(O)CCc1nc2ccccc2[nH]1 [compound 34] | 0 | 0 | 0 | 0 | 0 | 0.5 | 0
c1ccc(-c2cc[nH]n2)cc1 [compound 35] | -2 | 0 | -1 | 0 | 0 | 1 | 0
O=C(O)CCc1ccccc1 [compound 36] | 0 | 0 | 0 | 0 | 2 | 1 | 0
Cc1n[nH]cc1Br [compound 38] | 0 | 1.5 | 0 | 0 | 0 | 0 | 0
c1ccc2c(c1)CCNC2 [compound 39] | 0 | 1.5 | 2 | 0 | 0 | 1 | 0
N#Cc1ccccn1 [compound 40] | 0 | 0 | 0 | 0 | 0 | 0.5 | 0
N#Cc1ccncc1 [compound 41] | 0 | 0 | 0 | 0 | 0 | -0.5 | 0
Oc1cccnc1O [compound 42] | 0 | 0 | -1 | -1 | 0 | 0.5 | 0
Nc1ccccn1 [compound 43] | 0 | 0 | 0 | 0 | 0 | 1 | 0
Oc1ccccn1 [compound 44] | 0 | 0 | 0 | 0 | 0 | -0.5 | 0
CC(C)c1cc(C(=O)O)[nH]n1 [compound 46] | 0 | 0 | 0 | 0 | 0 | -0.5 | 0
Nc1ccncc1 [compound 47] | 0 | 1.5 | 0 | 0 | 0 | 0 | 0
Nc1ccc(Oc2ccccc2)nc1 [compound 48] | 0 | 1.5 | -1 | 1 | 2 | 0.5 | 0
Nc1ccc(-n2cccn2)cc1 [compound 49] | 0 | 0 | 0 | 0 | 2 | 1 | 0
COc1ncccc1N [compound 50] | 0 | 0 | 0 | 0 | 0 | 2.5 | 0
O=C(O)c1ccnn1-c1ccccc1 [compound 51] | 0 | 0 | 0 | -1 | 0 | 0.5 | 0
CNCc1ccc(-c2ccncc2)cc1 [compound 52] | 28.5 | 1.5 | 2 | -1 | 0 | 4 | 0
O=C(O)c1ccc(-c2cccnc2)cc1 [compound 53] | 0 | 0 | 0 | 0 | 0 | 1 | 0
O=C(O)c1ccc(-n2cccn2)cc1 [compound 54] | 0 | 0 | 0 | 0 | -1 | -0.5 | 0
Clc1nccc2ccccc12 [compound 56] | 0 | 0 | 0 | -2 | 0 | -0.5 | 0
Clc1ncccc1Br [compound 57] | 0 | 0 | 0 | -1 | 0 | 0.5 | 0
